pIC50: −log10 of the molar value.
Molecular target: Smurf-1 (Homo sapiens (Human), UniProt Q9HCE7)
Test: HECT E3 ligase autoubiquitinylation TR-FRET assay (Smurf-1)
Format: biochemical
From the text: To determine the HECT E3 ligase selectivity of the compounds, a panel of biochemical HECT E3 ligase autoubiquitinylation assays was employed (Smurf-1, Smurf-2, WWP1, WWP2, ITCH, Nedd4, Nedd4L and E6AP). The conjugation of ubiquitin to a protein substrate is a multistep process. In an initial ATP-requiring step, a thioester bond is formed between the carboxyl terminus of ubiquitin and an internal cystein residue of the ubiquitin-activating enzyme (E1). Activated ubiquitin is then transferred to a specific cystein residue of an ubiquitin-conjugating enzyme (E2). E2s donate ubiquitin to a HECT E3 ligase (E3) from which it is transferred to the substrate protein. HECT E3 ligases can auto-ubiquitinylate. This event is detected in the TR-FRET (Time-Resolved Fluorescence Resonance Energy Transfer) assay used in this panel. […] When these two fluorophores are brought together by a biomolecular interaction (in this case ubiquitinylation of the E3 ligase), a portion of the energy captured by the Cryptate during excitation is released through fluorescence emission at 620 nm, while the remaining energy is transferred to XL665. This energy is then released by XL665 as specific fluorescence at 665 nm. […]
After an incubation time of 45 min in the dark, the plates are transferred into the Pherastar fluorescence reader to measure the TR-FRET signal.

Chain of Smurf-1 (Q9HCE7 whole entry): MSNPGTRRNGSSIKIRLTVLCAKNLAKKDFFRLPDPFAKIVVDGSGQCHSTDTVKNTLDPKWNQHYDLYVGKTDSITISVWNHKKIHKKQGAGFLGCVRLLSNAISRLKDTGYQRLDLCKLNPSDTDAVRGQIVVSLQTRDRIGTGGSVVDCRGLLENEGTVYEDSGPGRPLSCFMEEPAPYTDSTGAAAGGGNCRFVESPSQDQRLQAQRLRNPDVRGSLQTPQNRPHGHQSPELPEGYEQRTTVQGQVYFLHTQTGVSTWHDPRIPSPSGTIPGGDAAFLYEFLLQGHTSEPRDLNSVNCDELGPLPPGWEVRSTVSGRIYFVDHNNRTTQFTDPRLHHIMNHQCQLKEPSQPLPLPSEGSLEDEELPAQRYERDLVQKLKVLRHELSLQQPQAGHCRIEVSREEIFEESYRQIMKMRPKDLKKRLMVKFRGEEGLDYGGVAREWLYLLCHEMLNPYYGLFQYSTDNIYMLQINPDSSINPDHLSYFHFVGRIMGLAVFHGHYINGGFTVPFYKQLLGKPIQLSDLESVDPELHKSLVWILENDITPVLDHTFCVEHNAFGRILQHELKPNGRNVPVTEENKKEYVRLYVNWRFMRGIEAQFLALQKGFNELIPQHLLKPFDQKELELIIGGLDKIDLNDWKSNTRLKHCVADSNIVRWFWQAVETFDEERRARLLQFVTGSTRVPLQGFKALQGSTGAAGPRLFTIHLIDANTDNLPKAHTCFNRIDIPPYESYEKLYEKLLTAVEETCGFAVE

pIC50: 6.01
SMILES: Cc1c(C(=O)Nc2c(C)n(C)n(C(C)C)c2=O)noc1[C@@H]1CCC[C@H](C(C)(C)C)O1 (mixture of isomers) [Example 17, 5-((2R,6S)-6-(tert-butyl)tetrahydro-2H-pyran-2-yl)-N-(2-isopropyl-1,5-dimethyl-3-oxo-2,3-dihydro-1H-pyrazol-4-yl)-4-methylisoxazole-3-carboxamide and 5-((2S,6R)-6-(tert-butyl)tetrahydro-2H-pyran-2-yl)-N-(2-isopropyl-1,5-dimethyl-3-oxo-2,3-dihydro-1H-pyrazol-4-yl)-4-methylisoxazole-3-carboxamide]

From US10195181B2, “Carboxamide derivatives” (Novartis AG, priority 2014, dated 2019)
